Reference: BigSolDB 2.1

CO[C@@]1(NC(=O)CSCC#N)C(=O)N2C(C(=O)O)=C(CSc3nnnn3C)CS[C@@H]21
solubility (mole fraction)
Conditions | 278.15 K | 283.15 K | 288.15 K | 293.15 K | 298.15 K | 303.15 K
in ethanol | 0.000266 | 0.000276 | 0.000343 | 0.000435 | 0.00049 | 0.000659
in methanol | 0.00163 | 0.00187 | 0.00222 | 0.00273 | 0.00364 | 0.00445
